Assay results as given in PMC7175131, “Synthesis, In Vitro Evaluation and Molecular Docking of the 5-Acetyl-2-aryl-6-hydroxybenzo[b]furans against Multiple Targets Linked to Type 2 Diabetes” (Biomolecules, 2020).
“And” between values parts separate entries of the source, which are not always exact repeats. Equal values may be shown once. Read-outs that look alike come from different tables or passages of the source.

What was measured:
[1] = molecular target: T1, PTP1B (Homo sapiens, UniProt P18031); assay: Kinetic studies towards PTP1B inhibition (Lineweaver-Burk and Dixon plots); assay type: biochemical; conditions: for mode of inhibition of PTP1B: Lineweaver-Burk and Dixon plots; for Ki: inhibitor 0.5-20 µM, substrate 0-25.0 µM, read-out: Ki (Dixon plot), PTP1B
T1 construct: purchased Sigma Aldrich, Modderfontein, South Africa
T1 sequence (P18031 1-435): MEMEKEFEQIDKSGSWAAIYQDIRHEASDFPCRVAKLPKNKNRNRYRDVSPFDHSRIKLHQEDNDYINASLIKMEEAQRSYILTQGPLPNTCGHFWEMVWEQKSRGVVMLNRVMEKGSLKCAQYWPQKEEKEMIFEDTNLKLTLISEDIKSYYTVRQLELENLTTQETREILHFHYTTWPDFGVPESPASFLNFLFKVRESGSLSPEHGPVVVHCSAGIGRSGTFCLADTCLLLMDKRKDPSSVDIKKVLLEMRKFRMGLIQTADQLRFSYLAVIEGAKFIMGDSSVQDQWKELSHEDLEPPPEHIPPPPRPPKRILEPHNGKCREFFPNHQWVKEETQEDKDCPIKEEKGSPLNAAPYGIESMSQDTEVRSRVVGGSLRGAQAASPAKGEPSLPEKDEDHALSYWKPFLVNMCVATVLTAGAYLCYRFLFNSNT
Experimental: The PTP1B inhibitory activity of compounds 2a–h and sodium orthovanadate was evaluated in triplicates in a 96 well microplate following a protocol by Goldstein et al.. Activity of PTPase (Sigma Aldrich, Modderfontein, South Africa) was evaluated using p-nitrophenylphosphate (PNPP) as the substrate. A 10 μL of PTP1B solution (0.02 U/mL) in 50 mM Hepes buffer (pH 7.0) with different concentrations (0.5, 10, 25, 50, 100 μM) of the test compounds and the reference standard were incubated at 25 °C for 10 min. After pre-incubation, 25 μL of HEPES buffer and 25 μL of 2 mM (pNPP) were added and the mixtures were incubated at 37 °C for 30 min. The reaction was stopped by the addition of 30 μL of 3 M NaOH and absorbance was determined at wavelength of 410 nm. Control tubes without the enzyme were ran in parallel to nullify the nonenzymatic reaction and for calculating the concentration of p-nitrophenolate ions produced in the reaction mixture. A molar extinction coefficient of 1.78 ×10^4 M^-1 cm^-1 was used to calculate the concentration of p-nitrophenolate ions produced in the reaction mixture.
Compounds 2c and 2h were subjected to kinetic analysis following the procedure outlined in 2.3.2 with inhibitors of various concentrations (0.5, 5, 10, 20 µM). The assay was performed with substrate of various concentrations (0, 2.5, 6.25, 12.5, 25.0 µM). The absorbance due to the p-nitrophenol produced by dephosphorylation of PTP1B was measured at 405 nm. The kinetic parameters were determined using Lineweaver-Burk double-reciprocal plots and the Dixon the Dixon plot method at increasing substrate and compound concentrations.

[2] = molecular target: T2, cyclooxygenase-2 (COX-2) (Homo sapiens, UniProt P35354); assay: COX-2 inhibitor screening kit assay; conditions: COX-2 IC50, means from duplicate runs
T2 sequence (P35354 18-604): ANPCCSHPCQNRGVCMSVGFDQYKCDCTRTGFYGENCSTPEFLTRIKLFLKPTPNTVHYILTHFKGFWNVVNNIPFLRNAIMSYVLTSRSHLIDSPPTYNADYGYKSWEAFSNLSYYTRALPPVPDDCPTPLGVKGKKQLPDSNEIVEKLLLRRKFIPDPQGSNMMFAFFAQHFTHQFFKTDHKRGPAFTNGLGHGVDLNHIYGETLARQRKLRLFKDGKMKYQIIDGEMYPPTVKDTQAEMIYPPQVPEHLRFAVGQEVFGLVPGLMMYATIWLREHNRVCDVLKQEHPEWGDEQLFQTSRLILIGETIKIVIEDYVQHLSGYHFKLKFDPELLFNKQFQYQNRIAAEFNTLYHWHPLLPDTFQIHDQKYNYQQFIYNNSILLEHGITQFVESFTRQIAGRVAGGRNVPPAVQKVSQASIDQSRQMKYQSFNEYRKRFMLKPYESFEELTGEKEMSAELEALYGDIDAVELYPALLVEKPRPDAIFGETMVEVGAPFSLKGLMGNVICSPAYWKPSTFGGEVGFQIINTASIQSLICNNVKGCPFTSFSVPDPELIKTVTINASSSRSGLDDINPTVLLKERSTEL
Experimental: The absorbance was measured using a Varioskan flash microplate spectrophotometer and the IC50 values were calculated with the aid of Origin Pro 9.0.

[3] = molecular target: T3, α-Glucosidase type 1 from baker's yeast (Saccharomyces cerevisiae, UniProt P53341); assay: biochemical; assay type: biochemical
T3 construct: purchased Sigma Aldrich (Pty) Ltd
T3 sequence (P53341 whole entry): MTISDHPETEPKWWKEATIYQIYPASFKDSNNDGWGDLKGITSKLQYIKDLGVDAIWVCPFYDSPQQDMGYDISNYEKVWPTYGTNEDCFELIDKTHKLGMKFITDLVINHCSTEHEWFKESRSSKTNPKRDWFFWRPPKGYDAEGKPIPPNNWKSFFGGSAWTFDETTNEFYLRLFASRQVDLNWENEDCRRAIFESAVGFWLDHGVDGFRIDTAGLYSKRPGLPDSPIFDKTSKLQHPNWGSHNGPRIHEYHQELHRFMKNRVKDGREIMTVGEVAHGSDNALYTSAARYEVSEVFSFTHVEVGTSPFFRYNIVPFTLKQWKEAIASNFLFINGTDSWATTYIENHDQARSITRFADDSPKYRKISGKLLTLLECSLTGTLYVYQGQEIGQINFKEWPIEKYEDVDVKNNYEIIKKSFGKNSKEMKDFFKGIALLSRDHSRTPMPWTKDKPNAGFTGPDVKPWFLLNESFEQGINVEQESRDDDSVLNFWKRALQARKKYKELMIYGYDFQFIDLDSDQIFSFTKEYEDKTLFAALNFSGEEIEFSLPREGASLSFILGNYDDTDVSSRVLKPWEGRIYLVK
Experimental: The IC50 values of these compounds were calculated through the nonlinear regression analysis using Origin Pro 9.0 (OriginLab Corporation, Northampton, MA, USA) and are expressed as the mean standard deviation (SD) of three distinct experiments.

[4] = molecular target: T4, human recombinant β-secretase (Homo sapiens, UniProt P56817); assay: β-secretase (BACE-1) FRET enzyme assay; assay type: biochemical; conditions: for IC50: FRET, sodium acetate pH 4.5, 60 min, triplicate
T4 construct: purchased Pan Vera / Thermo Fisher Scientific Corporation; host or cells: baculovirus expression
T4 sequence (P56817 46-501): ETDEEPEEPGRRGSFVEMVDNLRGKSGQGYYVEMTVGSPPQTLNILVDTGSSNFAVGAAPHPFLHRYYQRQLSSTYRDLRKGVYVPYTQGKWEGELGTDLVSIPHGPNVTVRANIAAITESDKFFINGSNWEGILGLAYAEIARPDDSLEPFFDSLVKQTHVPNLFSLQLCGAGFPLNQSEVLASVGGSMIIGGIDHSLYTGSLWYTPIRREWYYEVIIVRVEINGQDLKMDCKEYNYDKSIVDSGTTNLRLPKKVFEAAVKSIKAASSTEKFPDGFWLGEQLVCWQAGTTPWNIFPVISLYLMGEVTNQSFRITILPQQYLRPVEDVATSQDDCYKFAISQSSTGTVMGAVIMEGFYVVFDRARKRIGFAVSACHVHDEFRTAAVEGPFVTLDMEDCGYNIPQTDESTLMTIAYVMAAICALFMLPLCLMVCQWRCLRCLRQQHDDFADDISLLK
Experimental: The assays were conducted in triplicates. […] The percentage inhibition was calculated using the following equation: Inhibition (%)=1–(S –S0)/(C –C0) ×100, where C is the fluorescence of control (enzyme, assay buffer and substrate) after 60 min of incubation, C0 is the fluorescence of control at time 0, S is the fluorescence of tested samples (enzyme, sample solution and substrate) after 60 min. of incubation and S0 the fluorescence of the tested samples at time 0. The IC50 values were calculated with Origin Pro 9.0. (OriginLab Corporation).

[5] = DPPH radical scavenging assay; conditions: DPPH 0.3 mM in methanol, 45 min in the dark, 512 nm
Experimental: Antioxidant activities of compounds 2a–h against ascorbic acid (Sigma Aldrich, Saint Louis, Missouri, USA) as a positive control were evaluated using 2,2-diphenyl-1-picrylhydrazyl (DPPH) radical scavenging assay following a reported method by Zhu et al.. Triplicate solutions of the test compounds and the control in methanol (concentrations ranging from 0 µM to 50 µM) were treated with a solution of DPPH (0.3 mM) in methanol. The mixtures were incubated in the dark for 45 min and the absorbances were recorded at the wavelength of 512 nm using Varioskan flash microplate spectrophotometer reader. The inhibition was calculated in terms of percentage using the formula below, DPPH radical scavenged (%)=AbC − AbS/AbC×100, where AbC is absorbance of control and AbS the absorbance of the test sample. A graph of percentage inhibition of free radical activity was plotted against concentration of the sample.

[6] = molecular target: T1, PTP1B; assay: PTP1B inhibition assay (pNPP substrate); assay type: biochemical; conditions: Hepes buffer pH 7.0, triplicate
Experimental: Activity of PTPase (Sigma Aldrich, Modderfontein, South Africa) was evaluated using p-nitrophenylphosphate (PNPP) as the substrate. […] The reaction was stopped by the addition of 30 μL of 3 M NaOH and absorbance was determined at wavelength of 410 nm. Control tubes without the enzyme were ran in parallel to nullify the nonenzymatic reaction and for calculating the concentration of p-nitrophenolate ions produced in the reaction mixture.

[7] = molecular target: T5, α-glucosidase (Saccharomyces cerevisiae, UniProt P53341); assay: Kinetic studies towards α-glucosidase inhibition (Lineweaver-Burk and Dixon plots); assay type: biochemical; conditions: for mode of inhibition of α-glucosidase: Lineweaver-Burk and Dixon plots; for Ki: inhibitor 0.5-20 µM, substrate 0–25 µM, read-out: Ki (Dixon plot), α-glucosidase
T5 construct: purchased Sigma Aldrich (Pty) Ltd
T5 sequence (P53341 whole entry): as the sequence (P53341 whole entry) above
Experimental: The α-glucosidase inhibitory activity of compounds 2a–h was evaluated in triplicates in a 96 well microplate following a protocol by Shi et al.. […] Then 20 µL of 2 mM PNP-G was added and the absorbances were recorded at a wavelength of 405 nm using Varioskan flash microplate spectrophotometer (Thermo Scientific, Waltham, MA, USA). The IC50 values of these compounds were calculated through the nonlinear regression analysis using Origin Pro 9.0 (OriginLab Corporation, Northampton, MA, USA) and are expressed as the mean standard deviation (SD) of three distinct experiments.
The kinetics studies on compounds 2c and 2h were performed according to the reaction conditions in 2.3.1 with inhibitors of various concentrations (0.5, 5, 10, 20 µM) and the ranges of final substrate concentration were 0–25 µM. The type of inhibition was determined by using Lineweave-Burk plot (the inverse of velocity (1/v) against the inverse of the substrate concentration (1/[S]). The inhibitor constant was obtained by Dixon plot (the inverse of velocity (1/v) against concentration of inhibitor at each substrate concentration).

[8] = yeast enzyme, PNP-G substrate, pH 6.8, 37 °C, mean ± SD, triplicate, read-out: IC50 α-Glucosidase

Row | IC50 [3, 8] [µM] | SMILES | mode of inhibition of PTP1B [1] | Ki [1] [µM] | IC50 [2] | IC50 [4] [µM] | IC50 [5] | IC50 [6] [µM] | mode of inhibition of α-glucosidase [7] | Ki [7] [µM] | Vmax, α-glucosidase in presence of inhibitor ([7]; unchanged with inhibitor concentration) | melting point [°C] | IC50 [3] [µM] | activity against β-secretase (in words) [4] | activity against α-glucosidase (in words) ([3]; tested 0–100 μM)
1 | – | CC(=O)c1cc2cc(-c3ccc(Cl)cc3)oc2cc1O [Compound 2e, 1-[2-(4-Chlorophenyl)-6-hydroxybenzofuran-5-yl]ethanone] | – | – | – | > 100 | 11.3 ± 1.2 µM | 21.5 | – | – | – | 170 to 173 | 64.9 ± 0.05 | – | –
2 | 0.56 ± 0.24 | COc1ccc(-c2cc3cc(C(C)=O)c(O)cc3o2)cc1 [Compound 2g, 1-[6-Hydroxy-2-(4-methoxyphenyl)benzofuran-5-yl]ethanone] | – | – | 2.3 µM and 2.33 µM | 27.3 ± 1.1 | 16.8 ± 0.38 µM | 31.9 | – | – | – | – | – | – | –
3 | > 100 | CC(=O)c1cc2cc(-c3cccc(Cl)c3)oc2cc1O [Compound 2d, 1-[2-(3-Chlorophenyl)-6-hydroxybenzofuran-5-yl]ethanone] | – | – | – | > 100 | 15.5 ± 0.21 µM | 29.3 | – | – | – | – | – | – | –
4 | – | CC(=O)c1cc2cc(-c3ccc(C)cc3)oc2cc1O [Compound 2f, 1-[6-Hydroxy-2-(4-tolyl)benzofuran-5-yl]ethanone] | – | – | – | > 100 | 26.7 ± 0.62 µM | 26.7 | – | – | – | 169 to 172 | 14.05 ± 0.07 | inactive | –
5 | 4.65 ± 0.13 | CC(=O)c1cc2cc(-c3cccc(F)c3)oc2cc1O [Compound 2b, 1-[2-(3-Fluorophenyl)-6-hydroxybenzofuran-5-yl]ethanone] | – | – | – | > 100 | 46.5 ± 0.24 µM | 24.5 ± 0.29 | – | – | – | – | – | – | –
6 | – | CC(=O)c1cc2cc(-c3ccccc3)oc2cc1O [Compound 2a, 1-[6-Hydroxy-2-phenylbenzofuran-5-yl]ethanone] | – | – | – | 63.15 ± 0.07 | 12.2 ± 2.1 µM | 23 ± 0.23 | – | – | – | – | > 100 | – | No activity
7 | – | O=C1O[C@H]([C@@H](O)CO)C(O)=C1O [Ascorbic acid, ascorbic acid, reference compound] | – | – | – | – | 10.7 ± 0.42 µM | – | – | – | – | – | – | – | –

Row | SMILES | IC50 [3, 8] [µM] | mode of inhibition of PTP1B [1] | Ki [1] [µM] | IC50 [2] | IC50 [4] [µM] | IC50 [5] | IC50 [6] [µM] | mode of inhibition of α-glucosidase [7] | Ki [7] [µM] | Vmax, α-glucosidase in presence of inhibitor ([7]; unchanged with inhibitor concentration) | melting point [°C] | IC50 [3] [µM] | activity against β-secretase (in words) [4] | activity against α-glucosidase (in words) ([3]; tested 0–100 μM)
8 | COc1cc(OC)cc(-c2cc3cc(C(C)=O)c(O)cc3o2)c1 [Compound 2h, 1-[6-Hydroxy-2-(3,5-dimethoxyphenyl)benzofuran-5-yl]ethanone] | 0.78 ± 0.31 | non-competitive | 0.49 ± 0.01 | 99.6 ± 2.6 µM | 25.8 ± 0.08 | 6.28 ± 0.33 µM | 11.9 ± 0.35 | mixed mode | 5.11 ± 0.42 | 0.19 | 155 to 156 | – | – | –
9 | CC(=O)c1cc2cc(-c3ccc(F)cc3)oc2cc1O [Compound 2c, 1-[2-(4-Fluorophenyl)-6-hydroxybenzofuran-5-yl]ethanone] | 0.11 ± 0.04 | mixed-type | 5.2 ± 0.1 | 2.8 µM and 2.81 µM | > 100 | 9.8 µM and 9.82 µM | 17.8 | non-competitive | 15.09 ± 0.03 | – | – | – | – | –
